Values of other authors, collected in patent publication US20040028754A1, “Use of phyllanthus component for the treatment or prophylaxis of infections triggered by flaviviridae” (priority 2000, published 2004).

What was measured:
[1] = target: T1, cAMP-dependent protein kinase of the rat liver (Rattus norvegicus, UniProt P27791)
T1 construct: the cAMP-dependent protein kinase of the rat liver; from tissue; host or cells: rat liver

[2] = tested on: Ca^2+-dependent protein kinase of the wheat embryo
[3] = tested on: Ca^2+- and phospholipid-dependent protein kinase C (PKC) of the rat brain
[4] = tested on: Bacillus subtilis; details: 0.1 ml; extract 50 mg/ml, streptomycin 10 mg/ml
[5] = tested on: Staphylococcus aureus; details: 0.1 ml; extract 50 mg/ml, streptomycin 10 mg/ml

Compound	inhibition of protein kinase [1]	inhibition of protein kinase [2]	inhibition of protein kinase [3]	inhibition zone [4] [mm]	inhibition zone [5] [mm]
O=C1OC2C3OC(=O)C4=CC(=O)C5(O)Oc6c(O)c(O)cc(c6C4C5(O)O)C(=O)OC2C(OC(=O)c2cc(O)c(O)c(O)c2)OC3COC(=O)c2cc(O)c(O)c3c2C2C1=CC(=O)C(O)(O3)C2(O)O (centres unmarked) [amariin]	most effective	most effective	most effective		
[H]/N=C(/N)N[C@H]1[C@H](O)[C@@H](O)[C@H](O[C@@H]2O[C@@H](C)[C@](O)(C=O)[C@H]2O[C@@H]2O[C@@H](CO)[C@H](O)[C@@H](O)[C@@H]2NC)[C@@H](N/C(N)=N\[H])[C@@H]1O [streptomycin]				35	35
geraiin	most effective	most effective	most effective		
